The text below walks through data of paper PMC7278020, “Triterpenic Acids as Non-Competitive α-Glucosidase Inhibitors from Boswellia elongata with Structure-Activity Relationship: In Vitro and In Silico Studies” (Biomolecules, 2020).

Each structure is given as a SMILES string. Read-outs that look alike come from different tables or passages of the source. A value given as a limit tells only on which side of the number the result lay.

For assay [1], the target named is T1, α-Glucosidase enzyme (E.C. 3.2.1.20) (Saccharomyces cerevisiae, UniProt P53341).
T1 construct: purchased Sigma-Aldrich G0660-750UN
The assay can be described thus: biochemical. On the procedure:
(§1) α-Glucosidase enzyme (E.C. 3.2.1.20) from Saccharomyces cerevisiae were purchased from Sigma-Aldrich (Darmstadt, Hesse, Germany) with product number of G0660-750UN and their inhibition assay was carried out by using 0.1 M phosphate buffer (pH 6.8) solution at 37 °C. […] For the kinetics studies, different concentrations (0.1, 0.2, 0.4 and 0.8 mM) of p-nitrophenyl-α-D-glucopyranoside (substrate) were used. In control the tested compounds were replaced with DMSO-d6 (7.5% final). […] Three time the experiment was repeated having triplicate of each samples. The % inhibition was calculated by using the following formula:% Inhibition = 100 − (OD test well/OD control) ×100 (OD = Optical density)

The target in assay [2] is T2, α-glucosidase enzyme (Saccharomyces cerevisiae, UniProt P53341).
T2 construct: purchased Sigma-Aldrich G0660-750UN
The assay can be described thus: Kinetics studies on α-glucosidase (Lineweaver–Burk, secondary replot, Dixon plot). The assay is classed as biochemical. Particulars: for Type of Inhibition: Lineweaver–Burk plots. On the procedure:
as §1
The type of inhibition was determined by Lineweaver–Burk plots, the reciprocal of the rate of the reaction was plotted against the reciprocal of substrate concentrations to monitor the effect of inhibitor on both Km and Vmax. […] In non-competitive inhibition, the Vmax of enzyme decreased, while Km are not affected. […] The secondary replots of Lineweaver–Burk plots were used to determine the Ki values.

For assay [3], the target named is T1, α-Glucosidase enzyme (E.C. 3.2.1.20). The conditions noted are these: the previous investigation; acetyl group at C-3 position; cited from earlier work.
Assay [4] addresses T2, α-glucosidase enzyme. Further details: method as in PMID 29030193. Particulars: cited from earlier work.
The mark [5] stands for this setting: pH 6.8, 37 °C, substrate p-nitrophenyl-α-D-glucopyranoside 0.7 mM, NA = Not active, read-out: IC50 = µM ± SEM.
The mark [6] stands for this setting: substrate 0.1, 0.2, 0.4 and 0.8 mM, read-out: Ki = µM ± SEM.

T2 sequence (P53341 whole entry): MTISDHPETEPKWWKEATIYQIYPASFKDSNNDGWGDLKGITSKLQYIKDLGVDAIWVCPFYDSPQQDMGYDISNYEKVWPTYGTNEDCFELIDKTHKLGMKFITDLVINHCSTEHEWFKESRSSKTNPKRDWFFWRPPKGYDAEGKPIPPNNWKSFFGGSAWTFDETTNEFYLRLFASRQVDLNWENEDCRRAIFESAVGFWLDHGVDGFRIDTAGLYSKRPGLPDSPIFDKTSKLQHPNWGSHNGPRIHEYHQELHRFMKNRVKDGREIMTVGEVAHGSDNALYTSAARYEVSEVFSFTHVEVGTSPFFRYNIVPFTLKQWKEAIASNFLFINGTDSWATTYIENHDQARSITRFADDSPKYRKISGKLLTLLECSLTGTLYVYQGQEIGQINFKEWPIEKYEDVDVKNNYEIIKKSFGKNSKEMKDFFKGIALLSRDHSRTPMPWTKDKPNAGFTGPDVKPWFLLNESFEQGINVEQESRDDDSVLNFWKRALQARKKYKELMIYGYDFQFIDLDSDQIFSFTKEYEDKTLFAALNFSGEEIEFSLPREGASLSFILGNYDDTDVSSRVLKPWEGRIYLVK
T1 sequence (P53341 whole entry): as above

As for `CC(=O)OC1CCC2(C)C3=C(CCC2C1(C)C)C1(C)CCC(C(C)CCC=C(C)C)C1(C)CC3` (stereo not drawn) [Compound 1, 5α-tirucalla-8,24-dien-3α-acetate], the inhibition at 1000 µM in assay [1] was < 50%. In addition, the “IC50 = µM ± SEM” value in assay [1] (pH 6.8, 37 °C, substrate p-nitrophenyl-α-D-glucopyranoside 0.7 mM, NA = Not active) was “inactive”.

In the case of `CC(C)=CCC[C@H](C)C1CC[C@]2(C)C3=C(CC[C@@]12C)[C@@]1(C)CC[C@@H](O)C(C)(C)C1CC3` (stereo partly drawn) [Compound 2, 5α-Tirucalla-8,24-dien-3α-ol], the inhibition at 1000 µM in assay [1] was < 50%.

On to `CC(=O)O[C@@H]1CC[C@]2(C)C3=C(CCC2C1(C)C)[C@@]1(C)CCC([C@H](CCC=C(C)C)C(=O)O)[C@]1(C)CC3` (stereo partly drawn) [Compound 3, 3α-Acetoxytirucall-8,24-dien-21-oic acid], for which the IC50 in assay [1] (setting [5]) is 56.8 ± 1.3 µM. The “Type of Inhibition” value on α-glucosidase enzyme [2] was “Non-competitive”. Besides, on α-glucosidase enzyme [2] (setting [6]), the Ki stood at 51.1 ± 0.63 µM.

In the case of `CC(=O)O[C@@H]1CC[C@]2(C)C3=CC=C4C5[C@@H](C)[C@H](C)CC[C@]5(C)CC[C@@]4(C)[C@]3(C)CCC2[C@@]1(C)C(=O)O` (stereo partly drawn) [Compound 4, 3-O-Acetyl-9,11-dehydro-β-boswellic acid], the IC50 in assay [1] worked out at 9.9 ± 0.48 µM. Also, the “times more active than the standard inhibitor acarbose” value in assay [1] (from IC50 values) is 94 times. At α-glucosidase enzyme [2], the inhibition constant (Ki) amounted to 7.05 ± 0.75 µM and the “Type of Inhibition” value is “Non-competitive”.

Take `C[C@@H]1CC[C@]2(C)CC[C@]3(C)C(=CC=C4[C@@]5(C)CC[C@@H](O)[C@](C)(C(=O)O)C5CC[C@]43C)C2[C@H]1C` (stereo partly drawn) [Compound 5, 9,11-Dehydro-β-boswellic acid]: in assay [1] (setting [5]), the concentration for half-maximal inhibition (IC50) came to 20.9 ± 0.05 µM. Also, the “Type of Inhibition” value at α-glucosidase enzyme [2] is “Non-competitive”. Also, at α-glucosidase enzyme [2] (setting [6]), the Ki stood at 15.3 ± 0.54 µM.

As for `CC(=O)O[C@@H]1CC[C@@]2(C)[C@@H](CC[C@]3(C)[C@@H]2CC=C2[C@@H]4[C@@H](C)[C@H](C)CC[C@]4(C)CC[C@]23C)[C@@]1(C)C(=O)O` [Compound 6, 3-Acetyl-β-boswellic acid], the “glucosidase inhibition (in words)” value in assay [3] is “most promising glucosidase inhibitors”.

In the case of `CC(=O)O[C@@H]1CC[C@@]2(C)[C@@H](CC[C@]3(C)[C@@H]2C(=O)C=C2[C@@H]4[C@@H](C)[C@H](C)CC[C@]4(C)CC[C@]23C)[C@@]1(C)C(=O)O` [Compound 7, 3-Acetyl 11-keto-β-boswellic acid], the “glucosidase inhibition (in words)” value in assay [3] is “most promising glucosidase inhibitors”.

Regarding `CO[C@@H]1C=C2C3[C@@H](C)[C@H](C)CC[C@]3(C)CC[C@@]2(C)[C@]2(C)CCC3[C@](C)(CC[C@@H](O)[C@]3(C)C(=O)O)C12` (stereo partly drawn) [Compound 11, 11α-methoxy-β-boswellic acid], the half-maximal inhibitory concentration (IC50) in assay [1] was found to be 14.9 ± 1.31 µM. In addition, on α-glucosidase enzyme [2], the affinity, expressed as Ki, was 8.05 ± 0.38 µM and the “Type of Inhibition” value was “Non-competitive”.

With `CC(=O)O[C@@H]1CC[C@@]2(C)[C@@H](CC[C@]3(C)[C@@H]2CC=C2[C@@H]4CC(C)(C)CC[C@]4(C)CC[C@]23C)[C@@]1(C)C(=O)O` [Compound 12, 3-Acetyl-α-boswellic acid], the “glucosidase inhibition (in words)” value in assay [3] was “most promising glucosidase inhibitors”.

Consider `C[C@@H]1CC[C@H]2[C@@H]1C1C(CC[C@]2(C)O)C1(C)C` (some centres unmarked) [Compound 19, Viridiflorol], for which the inhibition at 1000 µM in assay [1] was < 50%.

As for `C/C1=C\CC/C(C)=C/C[C@H](C(C)(C)O)CC/C(C)=C/CC1` [Compound 20, Iso-serratol], the inhibition at 1000 µM in assay [1] was < 50%.

Take `CC1(C)CC[C@]2(C(=O)O)CC[C@]3(C)C(=CC[C@@H]4[C@@]5(C)CC[C@H](O)C(C)(C)[C@@H]5CC[C@]43C)[C@@H]2C1` [oleanolic acid]: the “Type of inhibition of α-glucosidase (literature)” value at α-glucosidase enzyme [4] is “non-competitive inhibitors”.

As to `C[C@H]1[C@H](C)CC[C@]2(C(=O)O)CC[C@]3(C)C(=CC[C@@H]4[C@@]5(C)CC[C@H](O)C(C)(C)[C@@H]5CC[C@]43C)[C@H]12` [ursolic acid], the “Type of inhibition of α-glucosidase (literature)” value on α-glucosidase enzyme [4] is given as “non-competitive inhibitors”.
